In ChEMBL document CHEMBL3885861, “Open TG-GATES”:

Species: Rattus norvegicus
Experiment: Open TG-GATES - Regimen: Daily Repeat
Assay type: toxicity, organism-based, Sprague-Dawley
Set-up: regimen Daily Repeat, gender Male, age 6 weeks
Conditions: in vivo, po, 250 mg/kg, route gavage, dose level High; for APTT / Bas / Eos / Fbg / Hb / Ht / Lym / MCH / MCHC / MCV / Mono / Neu / PT / Plat / RBC / Ret / WBC: tissue Blood
[1] = 72 h, tissue Kidney, time 3 day
[2] = 72 h, tissue Plasma, time 3 day

Work on CCSCC[C@H](N)C(=O)O [ETHIONINE] yielded a TERMINAL_BW (72 h, time 3 day) of 209.1 g, an APTT (72 h, time 3 day) of 27.3 s and a Bas (72 h, time 3 day) of 0%. It also gave an Eos (72 h, time 3 day) of 1%, a Fbg (72 h, time 3 day) of 204.2 mg/dL and a Hb (72 h, time 3 day) of 15.1 g/dL. The Ht (72 h, time 3 day) was 43.9%, the Lym (72 h, time 3 day) was 87% and the MCH (72 h, time 3 day) was 21.5 pg. For the same compound, the MCHC (72 h, time 3 day) was 34.3%, the MCV (72 h, time 3 day) was 62.9 fL and the Mono (72 h, time 3 day) was 2.4%. It also gave a Neu (72 h, time 3 day) of 8.8%, a PT (72 h, time 3 day) of 16.2 s and a Plat (72 h, time 3 day) of 114.9 x10_4/uL. The RBC (72 h, time 3 day) was 698.8 x10_4/ul, the Ret (72 h, time 3 day) was 4% and the WBC (72 h, time 3 day) was 108.9 x10_2/uL. For the same compound, the KIDNEY_L [1] was 0.9 g, the KIDNEY_R [1] was 0.9 g and the KIDNEY_TOTAL [1] was 1.9 g. For the same compound, the LIVER (72 h, tissue Liver, time 3 day) was 8.7 g, the A/G [2] was 1.9 and the ALP [2] was 1059.2 IU/L. For the same compound, the ALT [2] was 42 IU/L, the AST [2] was 73.2 IU/L and the BUN [2] was 15.8 mg/dL. The CRE [2] was 0.4 mg/dL, the Ca [2] was 10.4 mg/dL and the Cl [2] was 102 meq/L. The DBIL [2] was 0.09 mg/dL, the GLC [2] was 183.8 mg/dL and the IP [2] was 8.3 mg/dL. The K [2] was 3.8 meq/L, the LDH [2] was 236.4 IU/L and the Na [2] was 140 meq/L. It also gave a PL [2] of 94 mg/dL, an RALB [2] of 3.5 g/dL and a TBIL [2] of 0.2 mg/dL. The TC [2] was 36.6 mg/dL, the TG [2] was 40.4 mg/dL and the TP [2] was 5.5 g/dL. For the same compound, the gamma-GTP [2] was 0.8 IU/L, the TERMINAL_BW ([…], time 7 day) was 226 g and the TERMINAL_BW ([…], time 14 day) was 268.3 g. The TERMINAL_BW ([…], time 28 day) was 314.2 g, the APTT ([…], time 7 day) was 28 s and the Bas ([…], time 7 day) was 0%. For the same compound, the Eos ([…], time 7 day) was 0.4%, the Fbg ([…], time 7 day) was 210.4 mg/dL and the Hb ([…], time 7 day) was 15.1 g/dL. For the same compound, the Ht ([…], time 7 day) was 44.3%, the Lym ([…], time 7 day) was 83.4% and the MCH ([…], time 7 day) was 20.9 pg. The MCHC ([…], time 7 day) was 34%, the MCV ([…], time 7 day) was 61.6 fL and the Mono ([…], time 7 day) was 2.2%. It also gave a Neu ([…], time 7 day) of 13.6%, a PT ([…], time 7 day) of 15.5 s and a Plat ([…], time 7 day) of 87.8 x10_4/uL. It also gave an RBC ([…], time 7 day) of 720.4 x10_4/ul, a Ret ([…], time 7 day) of 1% and a WBC ([…], time 7 day) of 122.2 x10_2/uL. For the same compound, the APTT ([…], time 14 day) was 26 s, the Bas ([…], time 14 day) was 0% and the Eos ([…], time 14 day) was 0.6%. For the same compound, the Fbg ([…], time 14 day) was 205.4 mg/dL, the Hb ([…], time 14 day) was 14.3 g/dL and the Ht ([…], time 14 day) was 42.2%. It also gave a Lym ([…], time 14 day) of 75.8%, an MCH ([…], time 14 day) of 19.9 pg and an MCHC ([…], time 14 day) of 34%. It also gave an MCV ([…], time 14 day) of 58.5 fL, a Mono ([…], time 14 day) of 2.6% and a Neu ([…], time 14 day) of 20.2%. The PT ([…], time 14 day) was 15.4 s, the Plat ([…], time 14 day) was 100.5 x10_4/uL and the RBC ([…], time 14 day) was 722.2 x10_4/ul. The Ret ([…], time 14 day) was 3.8%, the WBC ([…], time 14 day) was 133.6 x10_2/uL and the APTT ([…], time 28 day) was 27.8 s. It also gave a Bas ([…], time 28 day) of 0%, an Eos ([…], time 28 day) of 0.6% and a Fbg ([…], time 28 day) of 200.6 mg/dL. For the same compound, the Hb ([…], time 28 day) was 15.9 g/dL and the Ht ([…], time 28 day) was 45.4%.
